The record followed here is ChEMBL document CHEMBL3392976, “The discovery of novel 3-(pyrazin-2-yl)-1H-indazoles as potent pan-Pim kinase inhibitors” (Bioorg Med Chem Lett, 2015).

The bioavailability is dose-corrected exposure relative to a reference, in per cent. Higher therefore signals good availability. Usually Vd stands for the apparent volume that relates the amount in the body to the concentration in plasma or blood. Read a high Vd as wide distribution into tissue. The term half-life denotes the time needed for the level to fall by half in the phase considered. A lower half-life goes with fast loss. What is called AUC is the area under the concentration-time curve, a measure of exposure. A lower AUC goes with less exposure. One may read the clearance as the rate of elimination divided by the concentration. A higher clearance goes with efficient removal.

Series [1] in a line: in vivo. The note with it: Sprague-Dawley, rat, po, 5 mg/kg.
A short description of series [2]: in vivo. The note with it: Sprague-Dawley, rat, iv, 2 mg/kg.
Series [3] is described as follows: in vivo. Particulars: Sprague-Dawley, rat, iv, 2 mg/kg. The source holds these as a separate data set.
Series [4] can be described thus: in vivo. Particulars: Sprague-Dawley, rat, plasma, po, 5 mg/kg.
Series [5] in a line: in vivo. Particulars: Sprague-Dawley, rat, iv, 2 mg/kg. This is another data set of the same source.

Structures are written as SMILES.

For the compound `Fc1cccc(F)c1-c1ccc2[nH]nc(-c3cncc(O[C@H]4CNCCC45CC5)n3)c2c1`, the bioavailability in series [1] was 89%. The Vd in series [2] worked out at 3.7 L/kg. In series [3], this compound showed a half-life of 2.7 h. This compound showed an AUC in series [4] of 12.2 µM·h. Also, the clearance in series [5] was 16.7 mL/min/kg.
